Key:
Type in all cases: cell-based
HepG2 (liver cancer) = test: Antiproliferative activity (CCK-8 cell viability), HepG2; conditions: Homo sapiens, 72 h, read-out: Antiproliferative activity in cancerous cells, HepG2 (inhibition of cell growth); for inhibition at 3.3 µM: Compound concentration: 3.3 μM; for inhibition at 10 µM: Compound concentration: 10 μM; for inhibition at 30 µM: Compound concentration: 30 μM
How it was run: (§1)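 Growth inhibition graded in bands from percent viability against DMSO vehicle, read as CCK-8 absorbance at 450 nm. Compound tested at 3.3, 10 or 30 μM for 72 h, 37 °C; media contained 10% FBS: DMEM for HepG2/SW480, MEM for HeLa, F-12K for A549.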

SW480 (colon cancer) = test: Antiproliferative activity (CCK-8 cell viability), SW480; conditions: Homo sapiens, 72 h, read-out: Antiproliferative activity in cancerous cells, SW480 (inhibition of cell growth); for inhibition at 3.3 µM: Compound concentration: 3.3 μM; for inhibition at 10 µM: Compound concentration: 10 μM; for inhibition at 30 µM: Compound concentration: 30 μM
How it was run: as §1

[1] = tested on: A549 (lung adenocarcinoma); test: Antiproliferative activity (CCK-8 cell viability), A549; conditions: Homo sapiens, 72 h, read-out: Antiproliferative activity in cancerous cells, A549 (inhibition of cell growth); for inhibition at 3.3 µM: Compound concentration: 3.3 μM; for inhibition at 10 µM: Compound concentration: 10 μM; for inhibition at 30 µM: Compound concentration: 30 μM
How it was run: as §1

HeLa (cervical cancer) = test: Antiproliferative activity (CCK-8 cell viability), HeLa; conditions: Homo sapiens, 72 h, read-out: Antiproliferative activity in cancerous cells, HELA (inhibition of cell growth); for inhibition at 3.3 µM: Compound concentration: 3.3 μM; for inhibition at 10 µM: Compound concentration: 10 μM; for inhibition at 30 µM: Compound concentration: 30 μM
How it was run: as §1

[2] = tested on: MDA-MB-231 (breast cancer); test: Antiproliferative activity (CCK-8 cell viability), MDA-MB-231; conditions: Homo sapiens, 72 h, read-out: Antiproliferative activity in cancerous cells, MDA-MB-231 (inhibition of cell growth); for inhibition at 3.3 µM: Compound concentration: 3.3 μM; for inhibition at 10 µM: Compound concentration: 10 μM; for inhibition at 30 µM: Compound concentration: 30 μM
How it was run: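 Growth inhibition of human MDA-MB-231 breast cancer cells was assessed with a Cell Counting Kit-8. Cells cultured in DMEM plus 10% FBS were seeded at 2,000-5,000 cells/well, treated after attachment, and kept 72 h at 37° C. CCK-8 solution (10 μL) was added for 4 h, and absorbance at 450 nm was compared with DMSO-treated controls.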

[3] = tested on: A431 (epidermoid carcinoma); test: Antiproliferative activity (CCK-8 cell viability), A431; conditions: Homo sapiens, 72 h, read-out: Antiproliferative activity in cancerous cells, A431 (inhibition of cell growth); for inhibition at 3.3 µM: A-431, Compound concentration: 3.3 μM; for inhibition at 10 µM: A-431, Compound concentration: 10 μM; for inhibition at 30 µM: A-431, Compound concentration: 30 μM
How it was run: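 This growth inhibition assay used A431 cells maintained in Dulbecco's modified Eagle's medium plus 10% fetal bovine serum. Cells were seeded in 96-well plates, treated with compound for 72 h at 37° C., and then given 10 μL CCK-8 solution. After a further 4 h, absorbance was read at 450 nm.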

[4] = tested on: B16F10 (malignant melanoma); test: Antiproliferative activity (CCK-8 cell viability), B16F10; conditions: Mus musculus, 72 h, read-out: Antiproliferative activity in cancerous cells, B16F10 (inhibition of cell growth); for inhibition at 3.3 µM: B16-F10, Compound concentration: 3.3 μM; for inhibition at 10 µM: B16-F10, Compound concentration: 10 μM; for inhibition at 30 µM: B16-F10, Compound concentration: 30 μM
How it was run: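 Cell growth inhibition was measured in B16F10 malignant melanoma cells with a Cell Counting Kit-8 viability assay. Cells were maintained in DMEM plus 10% fetal bovine serum, seeded at 2,000-5,000 cells/well in 96-well plates, and treated for 72 h at 37° C. Viability was expressed relative to DMSO-treated vehicle control wells.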

CC1=C(CC(=O)O)c2cc(F)ccc2/C1=C\c1ccc(CCCCc2ccc(F)cc2)cc1 [B116, (Z)-2-(5-Fluoro-1-(4-(4-(4-fluorophenyl)butyl)benzylidene)-2-methyl-1H-inden-3-yl)acetic acid]
inhibition at 3.3 µM (HepG2 (liver cancer)): ≥ 50%
inhibition at 10 µM (HepG2 (liver cancer)): ≥ 50%
inhibition at 3.3 µM (SW480 (colon cancer)): < 30%
inhibition at 10 µM (SW480 (colon cancer)): ≥ 50%
inhibition at 3.3 µM [1]: 30 to 50%
inhibition at 10 µM [1]: ≥ 50%
inhibition at 3.3 µM (HeLa (cervical cancer)): ≥ 50%
inhibition at 10 µM (HeLa (cervical cancer)): ≥ 50%
inhibition at 3.3 µM [2]: < 30%
inhibition at 10 µM [2]: < 30%
inhibition at 3.3 µM [3]: ≥ 50%
inhibition at 10 µM [3]: ≥ 50%
inhibition at 3.3 µM [4]: 30 to 50%
inhibition at 10 µM [4]: 30 to 50%

CC1=C(CC(=O)O)c2cc(F)ccc2/C1=C\c1cccc(C(=O)c2ccccc2)c1 [C304, (Z)-2-(1-(3-Benzoylbenzylidene)-5-fluoro-2-methyl-1H-inden-3-yl)acetic acid]
inhibition at 3.3 µM (HepG2 (liver cancer)): 30 to 50%
inhibition at 10 µM (HepG2 (liver cancer)): ≥ 50%
inhibition at 30 µM (HepG2 (liver cancer)): ≥ 50%
inhibition at 3.3 µM (SW480 (colon cancer)): < 30%
inhibition at 10 µM (SW480 (colon cancer)): ≥ 50%
inhibition at 30 µM (SW480 (colon cancer)): ≥ 50%
inhibition at 3.3 µM [1]: < 30%
inhibition at 10 µM [1]: ≥ 50%
inhibition at 30 µM [1]: ≥ 50%
inhibition at 3.3 µM (HeLa (cervical cancer)): 30 to 50%
inhibition at 10 µM (HeLa (cervical cancer)): ≥ 50%
inhibition at 30 µM (HeLa (cervical cancer)): ≥ 50%
inhibition at 3.3 µM [2]: < 30%
inhibition at 10 µM [2]: 30 to 50%
inhibition at 30 µM [2]: ≥ 50%
inhibition at 3.3 µM [3]: < 30%
inhibition at 10 µM [3]: 30 to 50%
inhibition at 30 µM [3]: ≥ 50%
inhibition at 3.3 µM [4]: < 30%
inhibition at 10 µM [4]: ≥ 50%
inhibition at 30 µM [4]: ≥ 50%

COc1ccc(S(=O)(=O)Cc2ccc(/C=C3/C(C)=C(CC(=O)O)c4cc(F)ccc43)cc2)cc1 [B46, (Z)-2-(5-Fluoro-1-(4-(((4-methoxyphenyl)sulfonyl)methyl)benzylidene)-2-methyl-1H-inden-3-yl)acetic acid]
inhibition at 3.3 µM (HepG2 (liver cancer)): 30 to 50%
inhibition at 10 µM (HepG2 (liver cancer)): 30 to 50%
inhibition at 3.3 µM (SW480 (colon cancer)): 30 to 50%
inhibition at 10 µM (SW480 (colon cancer)): 30 to 50%
inhibition at 3.3 µM [1]: < 30%
inhibition at 10 µM [1]: < 30%
inhibition at 3.3 µM (HeLa (cervical cancer)): < 30%
inhibition at 10 µM (HeLa (cervical cancer)): ≥ 50%
inhibition at 3.3 µM [2]: < 30%
inhibition at 10 µM [2]: 30 to 50%
inhibition at 3.3 µM [3]: 30 to 50%
inhibition at 10 µM [3]: ≥ 50%
inhibition at 3.3 µM [4]: < 30%
inhibition at 10 µM [4]: ≥ 50%

CCc1ccc2c(c1)C(CC(=O)O)=C(C)/C2=C/c1ccc(CCc2ccccc2)cc1 [B157, (Z)-2-(5-Ethyl-2-methyl-1-(4-phenethylbenzylidene)-1H-inden-3-yl)acetic acid]
inhibition at 3.3 µM (HepG2 (liver cancer)): < 30%
inhibition at 10 µM (HepG2 (liver cancer)): ≥ 50%
inhibition at 3.3 µM (SW480 (colon cancer)): ≥ 50%
inhibition at 10 µM (SW480 (colon cancer)): ≥ 50%
inhibition at 3.3 µM [1]: 30 to 50%
inhibition at 10 µM [1]: ≥ 50%
inhibition at 3.3 µM (HeLa (cervical cancer)): < 30%
inhibition at 10 µM (HeLa (cervical cancer)): ≥ 50%
inhibition at 3.3 µM [2]: < 30%
inhibition at 10 µM [2]: < 30%
inhibition at 3.3 µM [3]: 30 to 50%
inhibition at 10 µM [3]: ≥ 50%
inhibition at 3.3 µM [4]: < 30%
inhibition at 10 µM [4]: ≥ 50%

CC1=C(CC(=O)O)c2cc(F)ccc2/C1=C/c1ccc(-c2ccc(Cl)cc2)cc1 [E22, (E)-2-(1-((4′-Chloro-[1,1′-biphenyl]-4-yl)methylene)-5-fluoro-2-methyl-1H-inden-3-yl)acetic acid]
inhibition at 3.3 µM (HepG2 (liver cancer)): ≥ 50%
inhibition at 10 µM (HepG2 (liver cancer)): ≥ 50%
inhibition at 30 µM (HepG2 (liver cancer)): ≥ 50%
inhibition at 3.3 µM (SW480 (colon cancer)): 30 to 50%
inhibition at 10 µM (SW480 (colon cancer)): ≥ 50%
inhibition at 30 µM (SW480 (colon cancer)): ≥ 50%
inhibition at 3.3 µM [1]: 30 to 50%
inhibition at 10 µM [1]: ≥ 50%
inhibition at 30 µM [1]: ≥ 50%
inhibition at 3.3 µM (HeLa (cervical cancer)): 30 to 50%
inhibition at 10 µM (HeLa (cervical cancer)): ≥ 50%
inhibition at 30 µM (HeLa (cervical cancer)): ≥ 50%
inhibition at 3.3 µM [2]: ≥ 50%
inhibition at 10 µM [2]: ≥ 50%
inhibition at 30 µM [2]: ≥ 50%
inhibition at 3.3 µM [3]: 30 to 50%
inhibition at 10 µM [3]: ≥ 50%
inhibition at 30 µM [3]: ≥ 50%
inhibition at 3.3 µM [4]: ≥ 50%
inhibition at 10 µM [4]: ≥ 50%
inhibition at 30 µM [4]: ≥ 50%

COc1cc(COCc2ccc(/C=C3/C(C)=C(CC(=O)O)c4cc(F)ccc43)cc2)ccc1F [B113, (Z)-2-(5-Fluoro-1-(4-(((4-fluoro-3-methoxybenzyl)oxy)methyl)benzylidene)-2-methyl-1H-inden-3-yl)acetic acid]
inhibition at 3.3 µM (HepG2 (liver cancer)): < 30%
inhibition at 10 µM (HepG2 (liver cancer)): < 30%
inhibition at 3.3 µM (SW480 (colon cancer)): < 30%
inhibition at 10 µM (SW480 (colon cancer)): ≥ 50%
inhibition at 3.3 µM [1]: 30 to 50%
inhibition at 10 µM [1]: ≥ 50%
inhibition at 3.3 µM (HeLa (cervical cancer)): < 30%
inhibition at 10 µM (HeLa (cervical cancer)): ≥ 50%
inhibition at 3.3 µM [2]: 30 to 50%
inhibition at 10 µM [2]: ≥ 50%
inhibition at 3.3 µM [3]: ≥ 50%
inhibition at 10 µM [3]: ≥ 50%
inhibition at 3.3 µM [4]: < 30%
inhibition at 10 µM [4]: < 30%

CC1=C(CC(=O)O)c2cc(Br)ccc2/C1=C/c1ccc(Oc2ccc(F)cc2)cc1 [E32, (E)-2-(5-Bromo-1-(4-(4-fluorophenoxy)benzylidene)-2-methyl-1H-inden-3-yl)acetic acid]
inhibition at 3.3 µM (HepG2 (liver cancer)): < 30%
inhibition at 10 µM (HepG2 (liver cancer)): ≥ 50%
inhibition at 30 µM (HepG2 (liver cancer)): ≥ 50%
inhibition at 3.3 µM (SW480 (colon cancer)): 30 to 50%
inhibition at 10 µM (SW480 (colon cancer)): ≥ 50%
inhibition at 30 µM (SW480 (colon cancer)): ≥ 50%
inhibition at 3.3 µM [1]: 30 to 50%
inhibition at 10 µM [1]: ≥ 50%
inhibition at 30 µM [1]: ≥ 50%
inhibition at 3.3 µM (HeLa (cervical cancer)): ≥ 50%
inhibition at 10 µM (HeLa (cervical cancer)): ≥ 50%
inhibition at 30 µM (HeLa (cervical cancer)): ≥ 50%
inhibition at 3.3 µM [2]: ≥ 50%
inhibition at 10 µM [2]: ≥ 50%
inhibition at 30 µM [2]: ≥ 50%
inhibition at 3.3 µM [3]: ≥ 50%
inhibition at 10 µM [3]: ≥ 50%
inhibition at 30 µM [3]: ≥ 50%
inhibition at 3.3 µM [4]: ≥ 50%
inhibition at 10 µM [4]: ≥ 50%
inhibition at 30 µM [4]: ≥ 50%

CC1=C(CC(=O)O)c2cc(F)ccc2/C1=C\c1ccc(Oc2ccc(Cl)cc2)cc1F [C78, (Z)-2-(1-(4-(4-Chlorophenoxy)-2-fluorobenzylidene)-5-fluoro-2-methyl-1H-inden-3-yl)acetic acid]
inhibition at 3.3 µM (HepG2 (liver cancer)): < 30%
inhibition at 10 µM (HepG2 (liver cancer)): ≥ 50%
inhibition at 3.3 µM (SW480 (colon cancer)): < 30%
inhibition at 10 µM (SW480 (colon cancer)): 30 to 50%
inhibition at 3.3 µM [1]: ≥ 50%
inhibition at 10 µM [1]: ≥ 50%
inhibition at 3.3 µM (HeLa (cervical cancer)): < 30%
inhibition at 10 µM (HeLa (cervical cancer)): ≥ 50%
inhibition at 3.3 µM [2]: ≥ 50%
inhibition at 10 µM [2]: ≥ 50%
inhibition at 3.3 µM [3]: < 30%
inhibition at 10 µM [3]: ≥ 50%
inhibition at 3.3 µM [4]: < 30%
inhibition at 10 µM [4]: ≥ 50%

Reference: patent US20260184663A1, “INDENE COMPOUNDS, PHARMACEUTICAL COMPOSITIONS THEREOF, AND THEIR THERAPEUTIC APPLICATIONS” (NucMito Pharmaceuticals co. Ltd., priority 2022, published 2026)
